# Several values for one entry are separate records, joined by “and”; a condition that tells them apart may be missing. Equal entries are not always repeated.
# Tests used:
# [1] = pKa measurement of unformulated amine lipid (fluorescence, method of Jayaraman et al.); type: physicochemical; details: 100 μM in 0.1 M phosphate buffer, pH 2.0-12.0
# Protocol: The pKa of each amine lipid was determined according to the method in Jayaraman, et al. (Angewandte Chemie, 2012) with the following adaptations. […] Lipid was diluted to 100 μM in 0.1 M phosphate buffer (Boston Bioproducts) where the pH ranged from 2.0-12.0. Fluorescence intensity was measured using excitation and emission wavelengths of 321 nm and 448 nm.
# [2] = RNA encapsulation efficiency of LNPs (Ribogreen fluorescence assay); type: physicochemical; details: for % E (encapsulation efficiency): LNP with G534 sgRNA and Cas9 mRNA, sg:mRNA 1:2, experiment 109; for Encapsulation (%) / % E: LNP
# Procedure, shortened: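 Encapsulation efficiency is (Total RNA − Free RNA)/Total RNA. Free RNA was quantified by RiboGreen fluorescence (488/525 nm, ~10 min, RT, dark) in plain TE buffer; total RNA was quantified after LNP lysis with 0.2% Triton X-100, both against RNA standard curves.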
# [3] = Dynamic light scattering of LNPs: Z-average diameter, number average diameter, PDI; type: physicochemical
# Procedure, shortened: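 Values reported are the Z-average (intensity-weighted mean size), the number-average diameter and the PDI (spread of sizes, 0 = fully uniform). All three came from dynamic light scattering of LNP preparations after dilution in PBS.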
# TTR rat gene = assay: In vivo editing in rat liver, sgRNA targeting TTR (G534), % indel by NGS; design: species or system Sprague Dawley female rats; details: G534 sgRNA + Cas9 mRNA LNP, Experiment 109
# Protocol: Sprague Dawley female rats ranging from 6-7 weeks of age were used in each study. Each animal was weighed and dosing solutions were prepared based on body weight. LNPs were dosed via the lateral tail vein in a volume of 0.35 mL per animal (approximately 2 mL per kilogram body weight). The animals were periodically observed for adverse effects for at least 24 hours post dose.
# For studies measuring in vivo editing in liver, animals were dosed at 0.1 mg/kg or 0.3 mg/kg. Animals were euthanized by CO2 asphyxiation 6 days post dose. At necropsy, the liver was collected for editing analysis by NGS and blood was collected into serum separator tubes for serum TTR measurement.
# In brief, to quantitatively determine the efficiency of editing at the target location in the genome, genomic DNA was isolated and deep sequencing was utilized to identify the presence of insertions and deletions introduced by gene editing.
# PCR primers were designed around the target site (e.g., within B2M), and the genomic area of interest was amplified. Additional PCR was performed according to the manufacturer's protocols (Illumina) to add the necessary chemistry for sequencing. The amplicons were sequenced on an Illumina MiSeq instrument. The reads were aligned to the mouse or rat reference genome (e.g., GRCm38) after eliminating those having low quality scores. The resulting files containing the reads were mapped to the reference genome (BAM files), where reads that overlapped the target region of interest were selected and the number of wild type reads versus the number of reads which contain an insertion, substitution, or deletion was calculated.
# The editing percentage (e.g., the “indel efficiency” or “percent indels”) was defined as the total number of sequence reads with insertions or deletions over the total number of sequence reads, including wild type.
# In vivo delivery in a rat model was assessed by measuring editing efficiency for materials delivered with formulations including various amine lipid compounds. Cas9 mRNA (SEQ ID NO: 6) was formulated as LNPs with an sgRNA targetting the TTR rat gene (G534, SEQ ID NO: 5). LNPs were formulated and characterized as described in Example 123. Analysis of average particle size, polydispersity (PDI), total RNA content and encapsulation efficiency of RNA are shown in Table 10.
# Sprague Dawley female rats were dosed i.v. at 0.1 or 0.3 mg/kg and assessed for editing in liver.
# [4] = sg:mRNA 1:1, N/P about 6, amine lipid/DSPC/cholesterol/PEG-2k-DMG 50/9/38/3, Table 2, Experiments 2-20
# [5] = sg:mRNA 1:2, N/P 6.0, 50/9/38/3, Table 4, Experiment 105
# [6] = LNP with G534 sgRNA and Cas9 mRNA, sg:mRNA 1:2, experiment 109
# [7] = LNP, sg:mRNA 1:1, N/P about 6, 50/9/38/3, Table 2, Experiments 2-20
# [8] = LNP, sg:mRNA 1:2, N/P 6.0, 50/9/38/3, Table 4, Experiment 105
# [9] = sg:mRNA 1:1, N/P 6.0, 50/9/38/3, Table 4, Experiments 101-104
# [10] = sg:mRNA 1:2, N/P about 6, 50/9/38/3, G650 sgRNA, Table 8, Experiment 108
# [11] = LNP, sg:mRNA 1:1, N/P 6.0, 50/9/38/3, Table 4, Experiments 101-104
# [12] = LNP, sg:mRNA 1:1.3, N/P about 6, 50/9/38/3, Table 2, Experiment 1
# [13] = LNP, sg:mRNA 1:2, N/P about 6, 50/9/38/3, G650, Table 8, Experiment 108
# [14] = LNP, sg:mRNA 1:2, N/P about 6, 50/9/38/3, Table 6, Experiments 106-107
SMILES,pKa [1],% E (encapsulation efficiency) [2],"Encapsulation (%) [2, 4]","% E [2, 5]","Number mean (nm) [3, 6]","PDI [3, 6]","Z-avg (nm) [3, 6]","Number mean (nm) [3, 7]","PDI [3, 7]","Z-avg (nm) [3, 7]","Number mean (nm) [3, 8]","PDI [3, 8]","Z-avg (nm) [3, 8]","% E [2, 9]","Number mean (nm) [3, 11]","Z-avg (nm) [3, 11]","PDI [3, 11]",Editing Mean % Indel (TTR rat gene; i.v. 0.1 mg/kg),Editing Mean % Indel (TTR rat gene; i.v. 0.3 mg/kg),"% E [2, 10]",further results
"CCCCC/C=C\C/C=C\CCCCCCCC(=O)OCC(COC(=O)CCC(OCCCCCCCC)OCCCCCCCC)COC(=O)OCCCN(CC)CC (stereo not shown) [Compound 1, 3-((4,4-bis(octyloxy)butanoyl)oxy)-2-((((3-(diethylamino)propoxy)carbonyl)oxy)methyl)propyl (9Z,12Z)-octadeca-9,12-dienoate, reference compound]",6.4,98%,96% and 99% and 98% and 97%,99%,73 nm,0.01,88 nm,–,–,–,73.15 nm,0.033,88.60 nm,98% and 99% and 97%,69.51 nm and 62.86 nm and 64.97 nm and 63.19 nm,84.93 nm and 79.83 nm and 82.71 nm and 79.18 nm,–,21.1%,61.3%,98%,"Encapsulation (%) ([2]; sg:mRNA 1:1.3, N/P about 6, amine lipid/DSPC/cholesterol/PEG-2k-DMG 50/9/38/3, Table 2, Experiment 1): 97%; % E ([2]; sg:mRNA 1:2, N/P about 6, 50/9/38/3, TTR sgRNA (SEQ ID NO: 4), Table 6, Experiments 106-107): 99%; Number mean (nm) [3, 12]: 63.16 nm; PDI [3, 12]: 0.022; Z-avg (nm) [3, 12]: 77.85 nm; Number mean (nm) [3, 13]: 70 nm; PDI [3, 13]: 0.03; Z-avg (nm) [3, 13]: 86 nm; Number mean (nm) [3, 14]: 76 nm and 71 nm; Z-avg (nm) [3, 14]: 91 nm and 88 nm"
"CCCCC/C=C\C/C=C\CCCCCCCC(=O)OCC(COC(=O)CCC(OCCCCCCCC)OCCCCCCCC)COC(=O)OCC1CCCN(C)C1 (stereo not shown) [Compound 53, 3-((4,4-bis(octyloxy)butanoyl)oxy)-2-(((((1-methylpiperidin-3-yl)methoxy)carbonyl)oxy)methyl)propyl (9Z,12Z)-octadeca-9,12-dienoate]",6.85,–,99%,–,–,–,–,60.35 nm,0.040,76.24 nm,–,–,–,99%,56.05 nm,70.47 nm,0.019,–,–,–,–
"CCCCC/C=C\C/C=C\CCCCCCCC(=O)OCC(COC(=O)CCC(OCCCCCCCC)OCCCCCCCC)COC(=O)NCC1CCCN1CC (stereo not shown) [Compound 40, 3-((4,4-bis(octyloxy)butanoyl)oxy)-2-(((((1-ethylpyrrolidin-2-yl)methyl)carbamoyl)oxy)methyl)propyl (9Z,12Z)-octadeca-9,12-dienoate]",7.33,–,98%,–,–,–,–,56.73 nm,0.056,74.12 nm,–,–,–,95%,66.92 nm,83.69 nm,0.014,–,–,–,–
"CCCCC/C=C\C/C=C\CCCCCCCC(=O)OCC(COC(=O)CC12CC3CC(CC(C3)C1)C2)COC(=O)OCCCN(CC)CC (stereo not shown) [Compound 107, 3-(2-((3 r,5 r, 7r)-adamantan-1-yl)acetoxy)-2-((((3-(diethylamino)propoxy)carbonyl)oxy)methyl)propyl (9Z,12Z)-octadeca-9,12-dienoate]",6.43,–,–,–,–,–,–,–,–,–,–,–,–,–,–,–,–,–,–,94%,"Number mean (nm) [3, 13]: 65 nm; PDI [3, 13]: 0.07; Z-avg (nm) [3, 13]: 84 nm"

# More lines, main results first:
pKa [1],% E (encapsulation efficiency) [2],"Encapsulation (%) [2, 4]","% E [2, 5]","Number mean (nm) [3, 6]","PDI [3, 6]","Z-avg (nm) [3, 6]","Number mean (nm) [3, 7]","PDI [3, 7]","Z-avg (nm) [3, 7]","Number mean (nm) [3, 8]","PDI [3, 8]","Z-avg (nm) [3, 8]","% E [2, 9]","Number mean (nm) [3, 11]","Z-avg (nm) [3, 11]","PDI [3, 11]",SMILES,Editing Mean % Indel (TTR rat gene; i.v. 0.1 mg/kg),Editing Mean % Indel (TTR rat gene; i.v. 0.3 mg/kg),"% E [2, 10]",further results
6.14,97%,99%,99%,77 nm,0.02,95 nm,78.22 nm,0.018,96.35 nm,80.04 nm,0.032,98.90 nm,–,–,–,–,"CCCCCCCCCC(C)OC(=O)CCCCCCCC(=O)OCC(COC(=O)CCC(OCCCCCCCC)OCCCCCCCC)COC(=O)OCCCN(CC)CC (stereo not shown) [Compound 94, 1-(344,4-bis(octyloxy)butanoyl)oxy)-2-((((3-(diethylamino)propoxy)carbonyl)oxy)methyl)propyl) 9-(undecan-2-yl) nonanedioate]",31.7%,60.0%,–,–
6.4,98%,99% and 97%,99%,75 nm,0.04,91 nm,84.05 nm and 73.04 nm,–,100.4 nm and 87.86 nm,79.11 nm,0.041,96.76 nm,98% and 96%,72.60 nm and 67.12 nm,87.31 nm and 83.42 nm,0.012 and 0.024,"CCCCCCCCCCOC(=O)CCCCCCCC(=O)OCC(COC(=O)CCC(OCCCCCCCC)OCCCCCCCC)COC(=O)OCCCN(CC)CC (stereo not shown) [Compound 59, 1-(3-((4,4-bis(octyloxy)butanoyl)oxy)-2-((((3-(diethylamino)propoxy)carbonyl)oxy)methyl)propyl) 9-decyl nonanedioate]",12.4%,46.2%,–,–

# Reference: patent US20220402862A1 (Intellia Therapeutics, Inc., priority 2019, published 2022)
